Read-outs that look alike come from different tables or passages of the source.
Experiments:
Assay type in all cases: cell-based
RSV strain A2 = assay: RSV HEp-2 EC50 (infectious cytopathic cell protection assay); settings: HEp-2 cells, RSV A2, 4 days, read-out: RSV HEp-2 EC50
Summary of the method: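 Percent inhibition of RSV-induced cytopathic effect came from remaining cell viability (CellTiter-Glo luminescence) after 4 days at 37° C. Compounds in 3-fold serial dilutions were exposed to an infectious mix of titered A2 virus and HEp-2 cells at 50,000/ml, with 0% and 100% inhibition control standards.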

RSV A2 = assay: RSV NHBE EC50 (RSV A2 antiviral assay in normal human bronchial epithelial cells); settings: NHBE cells, RSV A2, 4 days, read-out: RSV NHBE EC50
HRV16 = HRV16 HELA EC50 (cytopathic effect in H1-HeLa cells)
Summary of the method: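 Read-out is luminescent cell viability (CellTiter-Glo) after 96 h of infection at 33 °C, scaled between uninfected and infected-untreated wells. Before infection with titrated virus, compounds went onto H1-HeLa cells as triplicate 3-fold dilution series.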

DENV2 replicon = assay: DENV-2 Huh-7 Rep EC50 (replicon luminescence); settings: read-out: DENV-2 Huh-7 Rep EC50
Summary of the method: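 EC50 derived from luminescence dose-response, normalised to DMSO-only 0% inhibition wells, after 1.5 h with EnduRen substrate. Compounds were first exposed for 48 h at 37° C to DENV2 replicon Huh-7 cells (5,000/well).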

[1] = H1-HeLa cells, 96 h, 33° C.; read-out: HRV16 HELA EC50
[2] = human respiratory syncytial virus, 96 h
[3] = Dengue virus, DENV2, Huh-7, 48 h
[4] = human respiratory syncytial virus, HEp-2, 96 h
[5] = human respiratory syncytial virus, NHBE, 96 h
[6] = 96 h, H1-HeLa cells, 33° C., read-out: HRV16 HELA EC50
[7] = Dengue virus, DENV2, Huh-7, 48 h, Huh-7 replicon cells, 48 hours

SMILES	EC50 (RSV strain A2)	EC50 (RSV A2)	EC50 (HRV16; [1])	EC50 (DENV2 replicon; Huh-7 replicon cells, 48 hours)	EC50 (RSV strain A2; [2])	EC50 (RSV A2; [2])	EC50 (DENV2 replicon; [3])	EC50 (RSV strain A2; [4])	EC50 (RSV A2; [5])	EC50 (HRV16; [6])	EC50 (DENV2 replicon; [7])
CC[C@H](N[P@@](=O)(OC[C@@]1(C#N)O[C@@H](c2ccc3c(N)ncnn23)[C@H](O)[C@@H]1O)Oc1ccccc1)C(=O)OCC(C)(C)C [Example 158]	969 nM	1270 nM	13000 nM	> 50000 nM	–	–	–	–	–	–	–
CC[C@H](N[P@](=O)(OC[C@@]1(C#N)O[C@@H](c2ccc3c(N)ncnn23)[C@H](O)[C@@H]1O)Oc1ccccc1)C(=O)OCC(C)(C)C [Example 159]	220 nM	489 nM	1280 nM	> 50000 nM	–	–	–	–	–	–	–
C[C@H](NP(=O)(OC[C@@]1(C#N)O[C@@H](c2ccc3c(N)ncnn23)[C@H](O)[C@@H]1O)Oc1ccccc1)C(=O)O[C@@H](C)C(N)=O (stereo partly drawn) [Example 160]	7300 nM	> 5000 nM	29100 nM	> 50000 nM	–	–	–	–	–	–	–
N#C[C@@]12COP(=O)(OC3CCCC3)O[C@H]1[C@@H](O)[C@H](c1ccc3c(N)ncnn13)O2 (stereo partly drawn) [Example 161, (4aR,6S,7S,7aS)-6-(4-aminopyrrolo[2,1-f][1,2,4]triazin-7-yl)-2-(cyclopentyloxy)-7-hydroxydihydro-4H-furo[3,2-d][1,3,2]dioxaphosphinine-4a(6H)-carbonitrile 2-oxide]	–	–	13800 nM	–	6480 nM	1490 nM	> 50000 nM	–	–	–	–
C[C@H](NP(=O)(OC[C@@]1(C#N)O[C@@H](c2ccc3c(N)ncnn23)[C@H](O)[C@@H]1O)Oc1ccccc1)C(=O)OCCN(C)C (stereo partly drawn) [Example 162, 2-(dimethylamino)ethyl ((((2R,3S,4R,5S)-5-(4-aminopyrrolo[2,1-f][1,2,4]triazin-7-yl)-2-cyano-3,4-dihydroxytetrahydrofuran-2-yl)methoxy)(phenoxy)phosphoryl)-L-alaninate]	–	–	–	–	–	–	–	6060 nM	> 5000 nM	12800 nM	13800 nM
CC(C)OP1(=O)OC[C@@]2(C#N)O[C@@H](c3ccc4c(N)ncnn34)[C@H](O)[C@@H]2O1 (stereo partly drawn) [Example 163, (4aR,6S,7S,7aS)-6-(4-aminopyrrolo[2,1-f][1,2,4]triazin-7-yl)-7-hydroxy-2-isopropoxydihydro-4H-furo[3,2-d][1,3,2]dioxaphosphinine-4a(6H)-carbonitrile 2-oxide]	–	–	> 50000 nM	–	13300 nM	9210 nM	> 50000 nM	–	–	–	–
COC(C)(C)COC(=O)[C@H](C)NP(=O)(OC[C@@]1(C#N)O[C@@H](c2ccc3c(N)ncnn23)[C@H](O)[C@@H]1O)Oc1ccccc1 (stereo partly drawn) [Example 164, 2-methoxy-2-methylpropyl ((((2R,3S,4R,5S)-5-(4-aminopyrrolo[2,1-f][1,2,4]triazin-7-yl)-2-cyano-3,4-dihydroxytetrahydrofuran-2-yl)methoxy)(phenoxy)phosphoryl)-L-alaninate]	–	–	–	–	–	–	–	1220 nM	724 nM	4000 nM	> 50000 nM
COC1CCC(OC(=O)[C@H](C)NP(=O)(OC[C@@]2(C#N)O[C@@H](c3ccc4c(N)ncnn34)[C@H](O)[C@@H]2O)Oc2ccccc2)CC1 (stereo partly drawn) [Example 165, 4-methoxycyclohexyl ((((2R,3S,4R,5S)-5-(4-aminopyrrolo[2,1-f][1,2,4]triazin-7-yl)-2-cyano-3,4-dihydroxytetrahydrofuran-2-yl)methoxy)(phenoxy)phosphoryl)alaninate]	–	–	–	–	–	–	–	1940 nM	1610 nM	11300 nM	> 100000 nM
N#C[C@]1(COP(=O)(NCCOC(=O)C2CCCCC2)Oc2ccccc2)O[C@@H](c2ccc3c(N)ncnn23)[C@H](O)[C@@H]1O (stereo partly drawn) [Example 166, 2-(((((2R,3S,4R,5S)-5-(4-aminopyrrolo[2,1-f][1,2,4]triazin-7-yl)-2-cyano-3,4-dihydroxytetrahydrofuran-2-yl)methoxy)(phenoxy)phosphoryl)amino)ethyl cyclohexane carboxylate]	–	–	–	–	–	–	–	83 nM	624 nM	336 nM	22100 nM
C=CCO[C@H](COCCCCCCCCCCCCCCCCCC)COP(=O)(O)OC[C@@]1(C#N)O[C@@H](c2ccc3c(N)ncnn23)[C@H](O)[C@@H]1O [Example 167, (R)-2-(allyloxy)-3-(octadecyloxy)propyl (((2R,3S,4R,5S)-5-(4-aminopyrrolo[2,1-f][1,2,4]triazin-7-yl)-2-cyano-3,4-dihydroxytetrahydrofuran-2-yl)methyl) hydrogen phosphate]	–	–	12000 nM	–	647 nM	359 nM	> 100000 nM	–	–	–	–
C[C@H](N[P@](=O)(OC[C@@]1(C#N)O[C@@H](c2ccc3c(N)ncnn23)[C@@H]2OC(=O)O[C@@H]21)Oc1ccccc1)C(=O)OC1CCCCC1 [Example 168, cyclohexyl ((S)-(((3aS,4R,6S,6aS)-6-(4-aminopyrrolo[2,1-f][1,2,4]triazin-7-yl)-4-cyano-2-oxotetrahydrofuro[3,4-d][1,3]dioxol-4-yl)methoxy)(phenoxy)phosphoryl)-L-alaninate]	–	–	–	–	–	–	–	53 nM	103 nM	160 nM	4670 nM
C[C@H](NP(=O)(OC[C@@]1(C#N)O[C@@H](c2ccc3c(N)ncnn23)[C@H](O)[C@@H]1O)Oc1ccccc1)C(=O)OC1CCCCCCC1 (stereo partly drawn) [Example 171, cyclooctyl ((((2R,3S,4R,5S)-5-(4-aminopyrrolo[2,1-f][1,2,4]triazin-7-yl)-2-cyano-3,4-dihydroxytetrahydrofuran-2-yl)methoxy)(phenoxy)phosphoryl)-L-alaninate]	–	–	–	–	–	–	–	220 nM	375 nM	582 nM	31500 nM
CC(C)COC(=O)OCCNP(=O)(OC[C@@]1(C#N)O[C@@H](c2ccc3c(N)ncnn23)[C@H](O)[C@@H]1O)Oc1ccccc1 (stereo partly drawn) [Example 177, 2-(((((2R,3S,4R,5S)-5-(4-aminopyrrolo[2,1-f][1,2,4]triazin-7-yl)-2-cyano-3,4-dihydroxytetrahydrofuran-2-yl)methoxy)(phenoxy)phosphoryl)amino)ethyl isobutyl carbonate]	–	–	–	–	–	–	–	104 nM	1560 nM	1160 nM	> 50000 nM
C[C@H](NP(=O)(N[C@@H](C)C(=O)OCC(C)(C)C)OC[C@@]1(C#N)O[C@@H](c2ccc3c(N)ncnn23)[C@H](O)[C@@H]1O)C(=O)OCC(C)(C)C [Example 182]	–	–	8560 nM	–	1170 nM	2090 nM	> 50000 nM	–	–	–	–
C[C@H](NP(=O)(OC[C@@]1(C#N)O[C@@H](c2ccc3c(N)ncnn23)[C@H](O)[C@@H]1O)Oc1ccccc1)C(=O)OC1CCC(C)(C)CC1 (stereo partly drawn) [Example 183, 4,4-dimethylcyclohexyl ((((2R,3S,4R,5S)-5-(4-aminopyrrolo[2,1-f][1,2,4]triazin-7-yl)-2-cyano-3,4-dihydroxytetrahydrofuran-2-yl)methoxy)(phenoxy)phosphoryl)-L-alaninate]	–	–	–	–	–	–	–	80 nM	1200 nM	173 nM	17300 nM
CC(=O)N1CCC(OC(=O)C(C)NP(=O)(OC[C@@]2(C#N)O[C@@H](c3ccc4c(N)ncnn34)[C@H](O)[C@@H]2O)Oc2ccccc2)CC1 (stereo partly drawn) [Example 185, 1-acetylpiperidin-4-yl ((((2R,3S,4R,5S)-5-(4-aminopyrrolo[2,1-f][1,2,4]triazin-7-yl)-2-cyano3,4-dihydroxytetrahydrofuran-2-yl)methoxy)(phenoxy)phosphoryl)alaninate]	–	–	–	–	–	–	–	7940 nM	> 5000 nM	> 80200 nM	> 100000 nM
C[C@H](NP(=O)(OC[C@@]1(C#N)O[C@@H](c2ccc3c(N)ncnn23)[C@H](O)[C@@H]1O)Oc1ccccc1)C(=O)O[C@H]1CC[C@H](c2ccccc2)CC1 (stereo partly drawn) [Example 186, trans-4-phenylcyclohexyl ((((2R,3S,4R,5S)-5-(4-aminopyrrolo[2,1-f][1,2,4]triazin-7-yl)-2-cyano-3,4-dihydroxytetrahydrofuran-2-yl)methoxy)(phenoxy)phosphoryl)-L-alaninate]	–	–	–	–	–	–	–	2770 nM	70 nM	4750 nM	60300 nM
CCCCCCCCCCCCCCCCOCCCNP(=O)(OC[C@@]1(C#N)O[C@@H](c2ccc3c(N)ncnn23)[C@H](O)[C@@H]1O)Oc1ccccc1 (stereo partly drawn) [Example 187, ((2R,3S,4R,5S)-5-(4-aminopyrrolo[2,1-f][1,2,4]triazin-7-yl)-2-cyano-3,4-dihydroxytetrahydrofuran-2-yl)methyl phenyl (3-(hexadecyloxy)propyl)phosphoramidate]	–	–	–	–	–	–	–	1480 nM	> 5000 nM	20600 nM	9350 nM

— patent publication US20230295201A1 (Gilead Sciences, Inc., priority 2020, published 2023)
